Series [1] deals with Cholinesterase (Equus caballus, UniProt P81908).
Description: Inhibition of equine serum BuChE using S-butyrylthiocholine iodide as substrate preincubated for 6 mins before substrate addition by Ellman's method
Series [2] has as its target Acetylcholinesterase (Electrophorus electricus, UniProt O42275).
Description: Inhibition of electric eel AChE using acetylthiocholine iodide as substrate preincubated for 6 mins before substrate addition by Ellman's method
The target in series [3] is Cholinesterase (Homo sapiens, UniProt P06276).
Description: Inhibition of human serum BuChE using S-butyrylthiocholine iodide as substrate preincubated for 6 mins before substrate addition by Ellman's method
In series [4] the test system is Rattus norvegicus. The series can be described thus: Hepatotoxicity in Sprague-Dawley rat assessed as increase in aspartate aminotransferase activity in serum at 6 umol/100g body weight, ip measured up to 72 hrs. It is filed as toxicity, organism-based. The following applies: in vivo.
Series [5] concerns PC-12. The series can be described thus: Neuroprotective activity against H2O2-induced oxidative stress in rat PC12 cells assessed as cell viability preincubated at 12.5 to 6.25 uM for 2 hrs before H2O2 addition measured after 24 hrs by MTT assay. It counts as functional, cell-based. Background: Tetrazolium dyes change colour on reduction, which living cells bring about.
The subject of series [6] is PC-12. The series can be described thus: Neuroprotective activity against H2O2-induced oxidative stress in rat PC12 cells assessed as inhibition of cell death preincubated at 3.125 to 6.25 uM for 2 hrs before H2O2 addition measured after 24 hrs by MTT assay. It counts as functional, cell-based.
Series [7] concerns the target Acetylcholinesterase (Homo sapiens, UniProt P22303).
Description: Inhibition of human erythrocyte AChE using acetylthiocholine iodide as substrate preincubated for 6 mins before substrate addition by Ellman's method
The nature of series [8]: Cytotoxicity against rat PC12 cells assessed as reduction in cell viability at 1.563 to 12.5 uM after 48 hrs by MTT assay. It is filed as cell-based. The following applies: pc-12, 48 h.
Series [9] deals with Acetylcholinesterase (Electrophorus electricus) (UniProt O42275). The series can be described thus: Mixed-type inhibition of electric eel AChE using acetylthiocholine iodide as substrate by Lineweaver-Burk double reciprocal plot method.
Series [10] concerns Rattus norvegicus. The series can be described thus: Hepatotoxicity in Sprague-Dawley rat assessed as increase in alanine aminotransferase activity in serum at 6 umol/100g body weight, ip measured up to 72 hrs. It is filed as toxicity, organism-based. To be noted: in vivo.
Another series in a line: in vitro. To be noted: PAMPA. Background: The PAMPA barrier holds no transporters, so it reflects passive diffusion.
The subject of series [11] is Rattus norvegicus. The series can be described thus: Hepatotoxicity in Sprague-Dawley rat at 6 umol/100g body weight, ip measured after 24 hrs by histomorphological study. It is filed as toxicity, organism-based. To be noted: in vivo.

Calls of active or inactive are those of the source. The rule behind the calls is not given here.

Sequence of Cholinesterase (Homo sapiens, UniProt P06276) (P06276 whole entry): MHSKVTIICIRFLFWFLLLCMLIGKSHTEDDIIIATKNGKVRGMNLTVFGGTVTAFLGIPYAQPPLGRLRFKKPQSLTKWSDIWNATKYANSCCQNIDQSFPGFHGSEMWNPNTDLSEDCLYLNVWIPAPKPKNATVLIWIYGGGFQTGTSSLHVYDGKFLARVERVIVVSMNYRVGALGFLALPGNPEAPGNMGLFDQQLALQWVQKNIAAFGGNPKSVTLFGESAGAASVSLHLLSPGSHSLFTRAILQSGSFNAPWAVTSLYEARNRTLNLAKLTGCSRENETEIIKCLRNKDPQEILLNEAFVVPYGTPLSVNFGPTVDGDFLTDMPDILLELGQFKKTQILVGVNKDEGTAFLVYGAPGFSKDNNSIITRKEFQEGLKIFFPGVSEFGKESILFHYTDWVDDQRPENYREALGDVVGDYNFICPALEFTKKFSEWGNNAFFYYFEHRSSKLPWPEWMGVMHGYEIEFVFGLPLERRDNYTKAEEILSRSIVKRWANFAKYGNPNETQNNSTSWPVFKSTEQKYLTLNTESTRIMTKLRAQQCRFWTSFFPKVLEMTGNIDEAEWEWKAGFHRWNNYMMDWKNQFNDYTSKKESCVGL
Sequence of Acetylcholinesterase (Homo sapiens, UniProt P22303) (P22303 whole entry): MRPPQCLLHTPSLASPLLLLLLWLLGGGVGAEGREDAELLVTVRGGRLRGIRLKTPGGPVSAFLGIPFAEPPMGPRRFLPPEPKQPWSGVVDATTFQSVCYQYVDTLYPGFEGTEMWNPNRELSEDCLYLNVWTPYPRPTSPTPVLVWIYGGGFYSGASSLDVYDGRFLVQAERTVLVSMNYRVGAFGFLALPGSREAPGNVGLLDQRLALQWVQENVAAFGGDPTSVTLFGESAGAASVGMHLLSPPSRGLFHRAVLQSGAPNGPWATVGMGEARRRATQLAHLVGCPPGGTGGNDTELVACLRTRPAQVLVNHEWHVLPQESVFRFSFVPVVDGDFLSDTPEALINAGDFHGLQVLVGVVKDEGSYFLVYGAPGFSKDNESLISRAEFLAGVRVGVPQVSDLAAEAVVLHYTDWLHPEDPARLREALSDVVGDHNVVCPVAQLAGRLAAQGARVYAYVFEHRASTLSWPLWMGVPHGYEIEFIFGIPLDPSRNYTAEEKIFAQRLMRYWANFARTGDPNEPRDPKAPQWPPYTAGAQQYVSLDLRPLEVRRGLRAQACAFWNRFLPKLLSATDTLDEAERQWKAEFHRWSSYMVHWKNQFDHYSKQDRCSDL
Sequence of Acetylcholinesterase (Electrophorus electricus, UniProt O42275) (O42275 whole entry): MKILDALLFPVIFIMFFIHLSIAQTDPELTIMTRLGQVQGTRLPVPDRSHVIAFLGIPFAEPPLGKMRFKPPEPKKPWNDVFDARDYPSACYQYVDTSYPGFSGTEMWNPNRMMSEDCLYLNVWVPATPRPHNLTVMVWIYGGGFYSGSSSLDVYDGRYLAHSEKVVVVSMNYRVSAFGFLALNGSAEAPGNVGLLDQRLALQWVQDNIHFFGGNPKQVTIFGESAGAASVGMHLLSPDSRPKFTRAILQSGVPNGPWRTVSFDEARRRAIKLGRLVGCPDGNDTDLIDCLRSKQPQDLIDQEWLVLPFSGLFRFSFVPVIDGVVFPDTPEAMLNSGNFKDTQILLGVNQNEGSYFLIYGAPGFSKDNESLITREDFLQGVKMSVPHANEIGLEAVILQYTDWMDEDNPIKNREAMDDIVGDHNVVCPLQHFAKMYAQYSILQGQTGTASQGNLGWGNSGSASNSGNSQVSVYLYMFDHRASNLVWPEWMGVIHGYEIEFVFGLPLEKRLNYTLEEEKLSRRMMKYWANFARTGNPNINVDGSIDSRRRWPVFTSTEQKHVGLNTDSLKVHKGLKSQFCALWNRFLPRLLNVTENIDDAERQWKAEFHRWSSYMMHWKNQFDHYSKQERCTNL
Sequence of Cholinesterase (Equus caballus, UniProt P81908) (P81908 whole entry): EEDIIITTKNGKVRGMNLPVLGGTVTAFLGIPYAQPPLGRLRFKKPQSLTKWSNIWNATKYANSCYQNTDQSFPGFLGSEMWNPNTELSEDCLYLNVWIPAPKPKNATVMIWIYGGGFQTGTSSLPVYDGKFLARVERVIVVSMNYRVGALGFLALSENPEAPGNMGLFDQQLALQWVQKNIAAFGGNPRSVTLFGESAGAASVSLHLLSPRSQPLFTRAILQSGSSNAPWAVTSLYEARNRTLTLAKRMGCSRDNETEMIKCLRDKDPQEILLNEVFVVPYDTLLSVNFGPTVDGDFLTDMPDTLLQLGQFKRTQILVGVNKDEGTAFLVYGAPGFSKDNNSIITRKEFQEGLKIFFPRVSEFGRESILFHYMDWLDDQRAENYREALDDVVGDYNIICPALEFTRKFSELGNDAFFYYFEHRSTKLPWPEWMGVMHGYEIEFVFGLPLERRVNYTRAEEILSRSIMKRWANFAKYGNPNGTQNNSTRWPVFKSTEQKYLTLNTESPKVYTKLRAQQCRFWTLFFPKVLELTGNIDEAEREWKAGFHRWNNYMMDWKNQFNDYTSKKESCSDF
Sequence of Acetylcholinesterase (Electrophorus electricus) (O42275 24-633 limits assumed): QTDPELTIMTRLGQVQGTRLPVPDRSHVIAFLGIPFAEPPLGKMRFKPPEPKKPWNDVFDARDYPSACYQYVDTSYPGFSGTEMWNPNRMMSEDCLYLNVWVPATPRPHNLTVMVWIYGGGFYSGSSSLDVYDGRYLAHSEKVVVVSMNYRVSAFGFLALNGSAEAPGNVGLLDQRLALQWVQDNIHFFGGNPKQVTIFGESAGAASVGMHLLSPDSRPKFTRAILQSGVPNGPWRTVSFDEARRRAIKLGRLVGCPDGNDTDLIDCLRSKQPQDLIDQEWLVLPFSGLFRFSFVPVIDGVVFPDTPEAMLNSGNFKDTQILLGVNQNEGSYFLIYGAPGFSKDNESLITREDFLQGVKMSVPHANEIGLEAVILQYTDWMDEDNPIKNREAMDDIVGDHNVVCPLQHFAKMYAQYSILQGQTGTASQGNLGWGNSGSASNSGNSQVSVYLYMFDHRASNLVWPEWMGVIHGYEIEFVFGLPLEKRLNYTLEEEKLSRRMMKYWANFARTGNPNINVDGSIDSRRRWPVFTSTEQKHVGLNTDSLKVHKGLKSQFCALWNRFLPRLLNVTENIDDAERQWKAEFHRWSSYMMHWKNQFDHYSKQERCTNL
Description for in vitro: Permeability of the compound in PBS and EtOH by PAMPA method

As a reminder, the IC50 is the point on the concentration scale where inhibition reaches its midpoint. Read a high IC50 as weaker potency in that assay. The term Papp denotes the rate of passage across a membrane or cell layer, normalised by area and donor concentration. Read a high Papp as ready permeation. For `Cc1c(C)c2c(c(C)c1O)CCC(C)(C(=O)NCCCCCCNc1c3c(nc4ccccc14)CCCC3)O2` (configuration not stated), 48.7 nM corresponded to half-maximal inhibition (IC50). The compound further returned an IC50 at Cholinesterase [1] of 22.2 nM. Moreover, on Acetylcholinesterase [2], the IC50 came to 9.8 nM. Half-maximal inhibition against Cholinesterase [3] (IC50) required 20.5 nM. Moreover, the Activity result in the series with Rattus norvegicus [4] was “Non-toxic”. In the series with PC-12 [5], the inhibition result is “inactive”. Besides, in the series on PC-12 [6], the inhibition result is “Active”. Moreover, on Acetylcholinesterase [7], the IC50 is 23.5 nM. For the same compound, in series [8], the Activity entry is “Non-toxic”. Besides, the inhibition entry in series [9] was “Active”. Further, the Activity result in the series with Rattus norvegicus [10] is recorded as “Non-toxic”. Also, the Papp in the series “in vitro” was 8.87 ×10⁻⁶ cm/s. In the series with Rattus norvegicus [11], the Activity entry is on record as “Non-toxic”.

In the case of `Cc1c(C)c2c(c(C)c1O)CCC(C)(C(=O)NCCNc1c3c(nc4ccccc14)CCCC3)O2` (configuration not stated), the IC50 is 30.4 nM. Also, the IC50 against Cholinesterase [1] turned out to be 41.3 nM. This compound yielded an IC50 at Acetylcholinesterase [2] of 150 nM. The IC50 against Cholinesterase [3] was found to be 56.3 nM. The IC50 against Acetylcholinesterase [7] was 284 nM.

On to `Cc1c(C)c2c(c(C)c1O)CCC(C)(C(=O)O)O2` (configuration not stated) [TROLOX], for which the half-maximal inhibitory concentration (IC50) was found to be 35.6 nM. In other words, the double-digit nanomolar range.

With `C[C@]12CCC(=O)C=C1CC[C@@H]1[C@@H]2CC[C@@]2(C)[C@H]1CC[C@]2(O)C(=O)CO` [CORTODOXONE], the Papp in the series “in vitro” amounted to 2.5 ×10⁻⁶ cm/s.

For `Cc1c(C)c2c(c(C)c1O)CCC(C)(C(=O)NCCCCCCCCNc1c3c(nc4ccccc14)CCCC3)O2` (configuration not stated), the IC50 was found to be 47.3 nM. In addition, half-maximal inhibition against Cholinesterase [1] (IC50) was put at 151 nM. Also, on Acetylcholinesterase [2], 228 nM corresponded to half-maximal inhibition (IC50). The compound further gave an IC50 at Cholinesterase [3] of 34.7 nM. The compound further yielded an IC50 against Acetylcholinesterase [7] of 226 nM.

For `Cc1c(C)c2c(c(C)c1O)CCC(C)(C(=O)NCCCCCCCCCCNc1c3c(nc4ccccc14)CCCC3)O2` (configuration not stated), the IC50 worked out at 43.2 nM. On Cholinesterase [1], half-maximal inhibition (IC50) was put at 263 nM. The compound further gave an IC50 against Acetylcholinesterase [2] of 387 nM. Also, the IC50 on Cholinesterase [3] stood at 110 nM. Also, on Acetylcholinesterase [7], the midpoint of inhibition, the IC50, lay at 453 nM.

Regarding `Cc1c(C)c2c(c(C)c1O)CCC(C)(C(=O)NCCCCCNc1c3c(nc4ccccc14)CCCC3)O2` (configuration not stated), inhibition was half-maximal at 40.7 nM (IC50). On Cholinesterase [1], the IC50 was found to be 35.4 nM. For the same compound, on Acetylcholinesterase [2], 250 nM corresponded to half-maximal inhibition (IC50). Moreover, on Cholinesterase [3], half-maximal inhibition (IC50) required 10.2 nM. On Acetylcholinesterase [7], this compound had an IC50 of 215 nM.

For `CN1C(C(=O)Nc2ccccn2)=C(O)c2ccccc2S1(=O)=O` [PIROXICAM], the Papp in the series “in vitro” was found to be 0.6 ×10⁻⁶ cm/s.

In turn, `Cc1c(C)c2c(c(C)c1O)CCC(C)(C(=O)NCCCCCCCNc1c3c(nc4ccccc14)CCCC3)O2` (configuration not stated) yielded an IC50 of 46.9 nM. Further, the midpoint of inhibition at Cholinesterase [1], the IC50, lay at 61.7 nM. The midpoint of inhibition against Acetylcholinesterase [2], the IC50, lay at 92.4 nM. The compound further registered an IC50 on Cholinesterase [3] of 19.2 nM. For the same compound, at Acetylcholinesterase [7], 144 nM corresponded to half-maximal inhibition (IC50).

In “in vitro”, `CCn1cc(C(=O)O)c(=O)c2cc(F)c(N3CCNC(C)C3)c(F)c21` (configuration not stated) [LOMEFLOXACIN] had a Papp of 0.8 ×10⁻⁶ cm/s.

`Cc1c(C)c2c(c(C)c1O)CCC(C)(C(=O)NCCCCNc1c3c(nc4ccccc14)CCCC3)O2` (configuration not stated) yielded an IC50 of 44.2 nM. For the same compound, the IC50 on Cholinesterase [1] turned out to be 15.6 nM. For the same compound, the IC50 against Acetylcholinesterase [2] was 558 nM. Further, the IC50 against Cholinesterase [3] amounted to 5.2 nM. The compound further came in with an IC50 against Acetylcholinesterase [7] of 535 nM.
